Results reported in PMC4985754, “Folding analysis of the most complex Stevedore’s protein knot” (Scientific Reports, 2016).

T1: DehI (Pseudomonas putida, UniProt Q8GJ84)
T1 construct: domains 1-130 and 166-296, linker 131-165
T1 sequence (Q8GJ84 1-296): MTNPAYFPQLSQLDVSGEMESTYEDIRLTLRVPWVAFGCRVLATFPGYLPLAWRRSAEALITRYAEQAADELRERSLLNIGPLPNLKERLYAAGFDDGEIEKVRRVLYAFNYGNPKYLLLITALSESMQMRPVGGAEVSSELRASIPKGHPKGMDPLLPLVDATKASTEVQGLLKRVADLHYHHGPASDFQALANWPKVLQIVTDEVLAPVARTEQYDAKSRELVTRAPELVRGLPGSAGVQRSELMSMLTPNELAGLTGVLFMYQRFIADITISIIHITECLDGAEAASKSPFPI

B1: DehI, α-haloacid dehalogenase from Pseudomonas putida strain PP3 (enzyme)
chain: T1 sequence (Q8GJ84 1-296)
notes: DehI, α-haloacid dehalogenase, Pseudomonas putida strain PP3; No tag cleavage is described; The theoretical MW of the homodimer is printed as 69.9 kDa, which may include the tag (surmise); also called wt; source: E. coli BL21 (DE3), purified (HisTrap HP, Superdex 200 SEC)

How the values were obtained:
DehI = molecular target: T1, DehI; test: colorimetric phenol red dehalogenase assay, absorbance at […] nm; type: biochemical; conditions: 10 mM substrate, 10 uM enzyme, 50 mM HEPES pH 8.2, 20 mM Na2SO4, 1 mM EDTA, room temperature overnight
[1] = molecular target: the molecule itself; test: SEC-MALS; DehI in solution, mono-dispersed major elution peak; buffer A (20 mM potassium phosphate pH 8, 300 mM NaCl) unless stated otherwise; observed MW compared with the theoretical MW of the homodimer

Molecule	colorimetric phenol red dehalogenase assay, absorbance at 559 nm (DehI)	stoichiometry N [1]
CC(Cl)C(=O)O (centres unmarked) [2-chloropropionic acid]	2-chloropropionic acid was used as the substrate of DehI	
B1		2
